From patent publication US20040192665A1 (priority 2002, published 2004)

What was measured:
[1] = tested on: DU-145 human prostate tumor cells; test: DU-145 xenograft tumor growth in nude mice; assay type: in vivo, nude mice (nu/nu); conditions: experiment 2; I.P. 8 mg/kg once per week; after 5 treatments
Procedure: Cage were cleaned and bedding changed once weekly. Irradiated corn cob bedding was used. Animals were observed daily and clinical signs were noted.
Morbidity and mortality were monitored daily.
The dosage level was determined by exact body weight.
Five mice per treatment group were tested.
Animals were treated once per week for 5 weeks.

[2] = experiment 2, I.P. 8 mg/kg once per week

COc1cccc2c1C(=O)c1c(O)c3c(c(O)c1C2=O)C[C@@](O)(C(=O)CO)C[C@@H]3O[C@H]1C[C@H](N)[C@H](O)[C@H](C)O1 [doxorubicin]
tumor volumes less compared to placebo-control tumors [1]: 4.4 fold
animals survived ([2]; after 5 treatments): 3/6
average group weight in the surviving animals, down by ([2]; after the 5th treatment): 27%
